Assay results from ChEMBL document CHEMBL1135216, “New 2-(1-adamantylcarbonyl)pyridine and 1-acetyladamantane thiosemicarbazones-thiocarbonohydrazones: cell growth inhibitory, antiviral and antimicrobial activity evaluation” (Bioorg Med Chem Lett, 2002).
Values after ≈ are worked out from the molar mass of the structure shown.

What was measured:
HL-60 [1] = assay: Tested for the inhibitory concentration against cell growth of human leukemic cell line HL60; type: functional
Klebsiella pneumoniae = assay: Tested for the antimicrobial activity against Klebsiella pneumoniae ATCC 13883; type: functional
E6SM [2] = assay: Tested for antiviral activity against thymidine kinase-deficient (TK-HSV-2G) virus in E6SM cell line(human embryonic skin-muscle fibroblasts); type: functional
Vero [3] = assay: Tested for antiviral activity against Punta toro virus in African green monkey kidney cell (Vero); type: functional; details: Chlorocebus sabaeus
HL-60 [4] = assay: Tested for the concentration required to reduce the viability of leukemia cells by 50% against cell growth of HL60 acute myeloid leukemia using MTT assay; type: functional; details: Homo sapiens, read-out: LC50 (the source's name)
Vero [5] = assay: Tested for antiviral activity against coxsackie B-4 virus in African green monkey kidney cell (Vero); type: functional; details: Chlorocebus sabaeus
K562 [6] = assay: Tested for the inhibitory concentration against cell growth of human leukemic cell line K562; type: functional
MT4 [7] = assay: (§1) Tested for effective concentration required to protect MT-4 cells against the cytopathicity of HIV-2(ROD); type: functional; details: Homo sapiens, read-out: LC50 (the source's name)
HEL [8] = assay: Tested for antiviral activity against thymidine kinase wild type Varicella zoster virus in human embryonic lung fibroblast; type: functional
MOLT-4 [9] = assay: Tested for the inhibitory concentration against cell growth of Tcell leukemic cell line MOLT-4 using MTT assay; type: functional; details: Homo sapiens
HEL [10] = assay: Tested for antiviral activity against human cytomegalovirus (AD-169) in human embryonic lung fibroblasts; type: functional
HeLa [11] = assay: (§2) The compound was tested for antiviral activity against VSV-virus in human epithelial cells; type: functional
MOLT-4 [12] = assay: Tested for the inhibitory concentration against cell growth of human leukemic cell line MOLT-4; type: functional
Vero [13] = assay: Tested for cytotoxic activity in African green monkey kidney cells (Vero); type: functional; details: Chlorocebus sabaeus
K562 [14] = assay: Tested for the inhibitory concentration against cell growth of K562 chronic myeloid leukemia using MTT assay; type: functional; details: Homo sapiens
CCRF-CEM [15] = assay: Tested for the concentration required to reduce the viability of leukemia cells by 50% against cell growth of T cell leukemia cell line CCRF-CEM using MTT assay; type: functional; details: Homo sapiens
HEL [16] = assay: Tested for antiviral activity against thymidine kinase deficient Varicella zoster virus in human embryonic lung fibroblasts; type: functional
[17] = test system: Staphylococcus epidermidis; assay: Tested for the antimicrobial activity against Staphylococcus epidermidis ATCC 12228; type: functional
E6SM [18] = assay: Tested for antiviral activity against vaccinia virus in human embryonic skin muscle fibroblast; type: functional; details: Muscle tissue
RPMI-8226 [19] = assay: Tested for the inhibitory concentration against cell growth of […] multiple myeloma using MTT assay; type: functional; details: Homo sapiens
HEL [20] = assay: Tested for cytotoxic activity in human embryonic lung fibroblast (HEL); type: functional
Staphylococcus hominis = assay: Tested for the antimicrobial activity against Staphylococcus hominis ATCC 27844; type: functional
Vero [21] = assay: Tested for antiviral activity against Sindbis virus in African green monkey kidney cell (Vero); type: functional; details: Chlorocebus sabaeus
HuT78 [22] = assay: Tested for the inhibitory concentration against cell growth of HuT78 T lymphoma using MTT assay; type: functional; details: Homo sapiens
CCRF-CEM [23] = assay: Tested for the inhibitory concentration against cell growth of Tcell leukemic cell line CCRF-CEM using MTT assay; type: functional; details: Homo sapiens
HuT78 [24] = assay: Tested for the inhibitory concentration against cell growth of human leukemic cell line HuT78; type: functional
Escherichia coli = assay: Tested for the antimicrobial activity against Escherichia coli ATCC 25922; type: functional
RPMI-8226 [25] = assay: Tested for the inhibitory concentration against cell growth of human leukemic cell line RPMI8226; type: functional
E6SM [26] = assay: Tested for antiviral activity against VSV-virus in human embryonic skin muscle fibroblasts; type: functional; details: Muscle tissue
E6SM [27] = assay: Tested for antiviral activity against herpes simplex virus type 1(KOS) in E6SM cell line(human embryonic skin-muscle fibroblasts); type: functional
MT4 [28] = assay: Tested for effective concentration required to protect MT-4 cells against the cytopathicity of HIV-1(IIIB); type: functional; details: Homo sapiens, read-out: LC50 (the source's name)
HeLa [29] = assay: Tested for cytotoxic activity in human epithelial cell line (HeLa); type: functional
E6SM [30] = assay: The compound was tested for antiviral activity against thymidine kinase-deficient (TK-HSV-1)virus in E6SM cell line(human embryonic skin-muscle fibroblasts); type: functional
K562 [31] = assay: Tested for the concentration required to reduce the viability of leukemia cells by 50% against cell growth of K562 chronic myeloid leukemia using MTT assay; type: functional; details: Homo sapiens, read-out: LC50 (the source's name)
HL-60 [32] = assay: Tested for the inhibitory concentration against cell growth of HL60 acute myeloid leukemia using MTT assay; type: functional; details: Homo sapiens
MOLT-4 [33] = assay: Tested for the concentration required to reduce the viability of leukemia cells by 50% against cell growth of T cell leukemia cell line MOLT-4 using MTT assay; type: functional; details: Homo sapiens
Staphylococcus aureus = assay: Tested for the antimicrobial activity against Staphylococcus aureus ATCC 6538; type: functional
E6SM [34] = assay: Tested for cytotoxic activity in human embryonic skin muscle fibroblast (E6SM); type: functional; details: Muscle tissue
RPMI-8226 [35] = assay: Tested for the concentration required to reduce the viability of leukemia cells by 50% against cell growth of RPMI8226 multiple myeloma using MTT assay; type: functional; details: Homo sapiens, read-out: LC50 (the source's name)
MT4 [36] = assay: Tested for cytotoxic concentration required to reduce the viability of MT-4 cells by 50%; type: functional, cell-based; details: Homo sapiens, read-out: EC50 (the source's name)
Vero [37] = assay: Tested for antiviral activity against parainfluenza virus in african green monkey kidney cell (Vero); type: functional; details: Chlorocebus sabaeus
HuT78 [38] = assay: Tested for the concentration required to reduce the viability of leukemia cells by 50% against cell growth of HuT78 T lymphoma using MTT assay; type: functional; details: Homo sapiens
HeLa [39] = assay: Tested for antiviral activity against coxsackie-B4 virus in human epithelial cell line; type: functional
CCRF-CEM [40] = assay: Tested for the inhibitory concentration against cell growth of human leukemic cell line CCRF-CEM; type: functional
Vero [41] = assay: Tested for antiviral activity against Reo-1 virus in African green monkey kidney cell (Vero); type: functional; details: Chlorocebus sabaeus
E6SM [42] = assay: Antiviral activity against thymidine kinase-deficient (TK-HSV-1)virus in E6SM cell line(human embryonic skin-muscle fibroblasts); type: functional
E6SM [43] = assay: Tested for antiviral activity against thymidine kinase-deficient (TK-HSV-2G) virus in E6SM cell line(human embryonic skin-muscle fibroblasts)
E6SM [44] = assay: as §2; type: functional
MT4 [45] = assay: as §1; type: functional, cell-based; details: Homo sapiens
[46] = read-out: LC50 (the source's name)

SMILES: C/C(=N/N=C(/S)N/N=C(\S)c1ccc(Cl)cc1)C12CC3CC(CC(C3)C1)C2
- GI50 (HL-60 [1]): 100 µM
- MIC (Klebsiella pneumoniae): > 2300 µg/mL
- MIC (E6SM [2]): > 40 µg/mL
- MIC (Vero [3]): > 40 µg/mL
- CC50 (HL-60 [4]): 100 µM
- MIC (Vero [5]): > 40 µg/mL
- GI50 (K562 [6]): 100 µM
- CC50 (MT4 [7]): > 10 µM
- MIC (HEL [8]): > 2 µg/mL
- TGI (MOLT-4 [9]): 100 µM
- MIC (HEL [10]): > 2 µg/mL
- MIC (HeLa [11]): > 40 µg/mL
- GI50 (MOLT-4 [12]): 100 µM
- MCC (Vero [13]): > 400 µg/mL
- TGI (K562 [14]): 100 µM
- CC50 (CCRF-CEM [15]; [46]): 100 µM
- MIC (HEL [16]): > 2 µg/mL
- MIC [17]: 1150 µg/mL (≈ 2730 µM)
- MIC (E6SM [18]): > 5 µg/mL
- TGI (RPMI-8226 [19]): 100 µM
- MCC (HEL [20]): > 5 µg/mL
- MIC (Staphylococcus hominis): 1150 µg/mL (≈ 2730 µM)
- MIC (Vero [21]): > 40 µg/mL
- TGI (HuT78 [22]): 100 µM
- TGI (CCRF-CEM [23]): 100 µM
- GI50 (HuT78 [24]): 100 µM
- MIC (Escherichia coli): > 2300 µg/mL
- GI50 (RPMI-8226 [25]): 100 µM
- MIC (E6SM [26]): > 40 µg/mL
- MIC (E6SM [27]): > 40 µg/mL
- EC50 (MT4 [28]): > 10 µM
- MCC (HeLa [29]): > 200 µg/mL
- MIC (E6SM [30]): > 40 µg/mL
- CC50 (K562 [31]): 100 µM
- TGI (HL-60 [32]): 100 µM
- CC50 (MOLT-4 [33]; [46]): 100 µM
- MIC (Staphylococcus aureus): 1150 µg/mL (≈ 2730 µM)
- MCC (E6SM [34]): 200 µg/mL
- CC50 (RPMI-8226 [35]): 100 µM
- CC50 (MT4 [36]): 10.1 µM
- MIC (Vero [37]): > 40 µg/mL
- CC50 (HuT78 [38]; [46]): 100 µM
- MIC (HeLa [39]): > 40 µg/mL
- GI50 (CCRF-CEM [40]): 100 µM
- MIC (Vero [41]): > 40 µg/mL

SMILES: S=C(N/N=C(/c1ccccn1)C12CC3CC(CC(C3)C1)C2)NNC(=S)c1ccc(Cl)cc1Cl
- GI50 (HL-60 [1]): 3.6 µM
- MIC (Klebsiella pneumoniae): > 1880 µg/mL
- MIC (Vero [3]): > 3.2 µg/mL
- CC50 (HL-60 [4]): 31.9 µM
- MIC (Vero [5]): > 3.2 µg/mL
- GI50 (K562 [6]): 100 µM
- MIC (HEL [8]): > 2 µg/mL
- TGI (MOLT-4 [9]): 100 µM
- MIC (HEL [10]): > 2 µg/mL
- MIC (E6SM [42]): > 16 µg/mL
- MIC (E6SM [43]): > 3.2 µg/mL
- MIC (E6SM [44]): > 16 µg/mL
- GI50 (MOLT-4 [12]): 31.4 µM
- MCC (Vero [13]): 16 µg/mL
- TGI (K562 [14]): 100 µM
- TGI (CCRF-CEM [15]): 100 µM
- MIC (HEL [16]): > 2 µg/mL
- MIC [17]: 117 µg/mL (≈ 226 µM)
- MIC (E6SM [18]): > 16 µg/mL
- TGI (RPMI-8226 [19]): 29.5 µM
- MCC (HEL [20]): 5 µg/mL
- MIC (Staphylococcus hominis): 117 µg/mL (≈ 226 µM)
- EC50 (MT4 [45]): > 3 µM
- MIC (Vero [21]): > 3.2 µg/mL
- TGI (HuT78 [22]): 81 µM
- TGI (CCRF-CEM [23]): 100 µM
- GI50 (HuT78 [24]): 23 µM
- MIC (Escherichia coli): > 1880 µg/mL
- GI50 (RPMI-8226 [25]): 4.6 µM
- MIC (E6SM [26]): > 16 µg/mL
- MIC (E6SM [27]): > 16 µg/mL
- EC50 (MT4 [28]): > 3 µM
- MCC (HeLa [29]): 16 µg/mL
- CC50 (K562 [31]): 100 µM
- TGI (HL-60 [32]): 7 µM
- TGI (MOLT-4 [33]): 100 µM
- MIC (Staphylococcus aureus): 117 µg/mL (≈ 226 µM)
- MCC (E6SM [34]): 80 µg/mL
- CC50 (RPMI-8226 [35]): 100 µM
- CC50 (MT4 [36]): 2.6 µM
- MIC (Vero [37]): > 3.2 µg/mL
- TGI (HuT78 [38]): 100 µM
- MIC (HeLa [39]): > 3.2 µg/mL
- GI50 (CCRF-CEM [40]): 66.3 µM
- MIC (Vero [41]): > 3.2 µg/mL
